# Reference: ChEMBL document CHEMBL4834418, “Pentaminomycins F and G, Nonribosomal Peptides Containing 2-Pyridylalanine” (2021)
# The source made the active and inactive calls. The rule behind the calls is not given here. Starred links: 1 amine or outer side, 2 acyl side, 3 side chain; linkers in the order of their positions; H or OH if unused. Non-standard residues stand in square brackets, D forms with d. Residues, ends and D or L forms follow the SMILES beside them. X1 = N=C(N)N(O)CCC[C@H](N[*:1])C(=O)[*:2]
# What was measured:
# Klebsiella pneumoniae = experiment: Antibacterial activity against Klebsiella pneumoniae ATCC 700603 measured after overnight incubation; assay type: functional, organism-based
# Acinetobacter baumannii = experiment: Antibacterial activity against Acinetobacter baumannii MB5973 measured after overnight incubation; assay type: functional
# Pseudomonas aeruginosa = experiment: Antibacterial activity against Pseudomonas aeruginosa MB5919 measured after overnight incubation; assay type: functional, organism-based
# Escherichia coli = experiment: Antibacterial activity against Escherichia coli ATCC 25922 measured after overnight incubation; assay type: functional, organism-based
Structure (SMILES),Activity (Klebsiella pneumoniae),MIC (Acinetobacter baumannii) [µg/mL],Activity (Pseudomonas aeruginosa),Activity (Escherichia coli)
CC(C)C[C@@H]1NC(=O)[C@@H](Cc2ccccc2)NC(=O)[C@H](CCCN(O)C(=N)N)NC(=O)[C@H](Cc2c[nH]c3ccccc23)NC(=O)[C@@H](C(C)C)NC1=O,inactive,16,inactive,inactive
CC(C)C[C@@H]1NC(=O)[C@@H](CC(C)C)NC(=O)[C@H](CCCN(O)C(=N)N)NC(=O)[C@H](Cc2c[nH]c3ccccc23)NC(=O)[C@@H](C(C)C)NC1=O (cyclo(L[dV]W[X1][dL])),inactive,16,inactive,inactive
